Here are results for six molecules from ChEMBL document CHEMBL4373730, “Practical approaches to evaluating and optimizing brain exposure in early drug discovery” (Eur J Med Chem, 2019).

The nature of data set [1]: Brain to plasma partition coefficient, Kp of the compound in rat. The format is ADME, organism-based. Particulars: brain and plasma.
A further data set in a line: in vivo. The following applies: rat, brain and plasma.

Description for in vivo: Unbound brain-to-plasma concentration ratio in rat

`CN(C)CCCN1c2ccccc2Sc2ccc(Cl)cc21` [CHLORPROMAZINE]: in data set [1], the Kp amounted to 8.5. The Kp uu in the data set “in vivo” was 0.9.

On to `O=C1Cc2cc(CCN3CCN(c4nsc5ccccc45)CC3)c(Cl)cc2N1` [ZIPRASIDONE], for which the Kp in data set [1] is 8.5. In the data set “in vivo”, this molecule registered a Kp uu of 0.9.

Molecule `O=C(CCCN1CCC(O)(c2ccc(Cl)cc2)CC1)c1ccc(F)cc1` [HALOPERIDOL] gave a Kp in data set [1] of 8.5. Besides, in the data set “in vivo”, the Kp uu was determined as 0.9.

As for `OCCOCCN1CCN(C2=Nc3ccccc3Sc3ccccc32)CC1` [QUETIAPINE], the Kp in data set [1] came to 8.5. For the same molecule, in the data set “in vivo”, the Kp uu was found to be 0.9.

`Cc1nc2n(c(=O)c1CCN1CCC(c3noc4cc(F)ccc34)CC1)CCCC2` [RISPERIDONE] had a Kp in data set [1] of 8.5. The Kp uu in “in vivo” worked out at 0.9.

With `CN1CCN(C2=Nc3cc(Cl)ccc3Nc3ccccc32)CC1` [CLOZAPINE], the Kp in data set [1] came to 8.5. This molecule also returned a Kp uu in the data set “in vivo” of 0.9.

As usually defined, the Kp is the ratio of the level in a tissue or fluid to that in plasma or blood.
